The values below come from ChEMBL document CHEMBL1201862, “PubChem BioAssay data set” (2004).

Among the test systems are IGROV-1; NCI-H460; RPMI-8226; A549; UO-31; SW-620; M14; SF-295; SK-MEL-5; HCC 2998; ACHN; SR; UACC-62; K562; T47D; SK-OV-3; KM12; OVCAR-8; SNB-19; SN12C.
Experiment in all cases: NCI-60 cell line screen, 48 h

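Five concentrations, 48 hours, 96-well plates. The concentration for 50% growth inhibition is given as GI50.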 Calls of active or inactive are those of the source. Rule as the data show it: active = GI50 up to about 1.1 µM and inactive = higher.

As to `O=C1CSC(c2ccccc2[N+](=O)[O-])N1c1ccc(-c2ccc(-n3c(-c4ccccc4)nc4ccccc4c3=O)cc2)cc1` (stereo not given), the GI50 in the experiment with IGROV-1 is 57.1 µM (inactive); with NCI-H460, > 100 µM (inactive); in the experiment on RPMI-8226, 90.2 µM (inactive); in the experiment on A549, > 100 µM (inactive); in the experiment on UO-31, 29.9 µM (inactive); with SW-620, 36.4 µM (inactive). The GI50 was > 100 µM (inactive) in the experiment with M14; > 100 µM (inactive) with SF-295; 42 µM (inactive) in the experiment with SK-MEL-5; > 100 µM (inactive) in the experiment with HCC 2998; > 100 µM (inactive) with ACHN; 44.6 µM (inactive) in the experiment with SR. Besides, the GI50 with UACC-62 was 36.6 µM (inactive); in the experiment on K562, 67.3 µM (inactive); with T47D, 29.1 µM (inactive); in the experiment with SK-OV-3 it was > 100 µM (inactive); in the experiment on KM12, 80 µM (inactive); with OVCAR-8, > 100 µM (inactive). Besides, the GI50 in the experiment with SNB-19 and with SN12C was > 100 µM (inactive) throughout.
With `Cn1cc2c3ccccc3nc-2c2ccccc21` [ISOCRYPTOLEPINE], the GI50 in the experiment on IGROV-1 was 1.63 µM (inactive); in the experiment on NCI-H460 it was 1.44 µM (inactive); in the experiment with RPMI-8226 it was 1.53 µM (inactive); with A549, 2.17 µM (inactive); in the experiment on UO-31 it was 1.4 µM (inactive); in the experiment with SW-620, 1.12 µM (inactive). Besides, the GI50 in the experiment on M14 was 1.63 µM (inactive); in the experiment on SF-295, 2.78 µM (inactive); in the experiment on SK-MEL-5 it was 1.7 µM (inactive); with HCC 2998, 1.6 µM (inactive); in the experiment on ACHN it was 1.71 µM (inactive); in the experiment on SR, 0.397 µM (active). Besides, the GI50 in the experiment with UACC-62 was 1.6 µM (inactive); with K562, 1.94 µM (inactive); with T47D, 2.07 µM (inactive); in the experiment on SK-OV-3, 1.99 µM (inactive); in the experiment with KM12, 2.08 µM (inactive); in the experiment with OVCAR-8, 1.6 µM (inactive). Besides, the GI50 in the experiment on SNB-19 is 2.96 µM (inactive); in the experiment on SN12C, 1.57 µM (inactive).
For the compound `CC(/C=C/C=C\C=C\C=C(/C)C(=O)NC(C)CO)=C\C(C)C(O)/C(C)=C/C(C)CCc1ccccc1` (stereo not given), the GI50 was 11.1 µM (inactive) in the experiment with IGROV-1; 3.85 µM (inactive) with NCI-H460; 4.14 µM (inactive) with RPMI-8226; 4.05 µM (inactive) in the experiment with A549; 5.11 µM (inactive) in the experiment on UO-31; 13.6 µM (inactive) with SW-620. Besides, the GI50 in the experiment on M14 is 8 µM (inactive); in the experiment on SF-295 it was 0.0236 µM (active); with SK-MEL-5, 0.198 µM (active); in the experiment with HCC 2998, 7.59 µM (inactive); in the experiment with ACHN, 0.274 µM (active); with SR, 1.14 µM (inactive). The GI50 in the experiment with UACC-62 was 8.61 µM (inactive); with K562, 0.364 µM (active); in the experiment on T47D it was 3.61 µM (inactive); with SK-OV-3, 16.4 µM (inactive); in the experiment with KM12 it was 2.32 µM (inactive); in the experiment on OVCAR-8, 6.82 µM (inactive). Also, the GI50 was 15.3 µM (inactive) in the experiment on SNB-19 and 12.8 µM (inactive) in the experiment with SN12C.
Take `COc1ccc(C(C#N)NC23CC4CC(CC(C4)C2)C3)cc1` (stereo not given): the GI50 in the experiment with IGROV-1, with NCI-H460, in the experiment with RPMI-8226, in the experiment with A549, with UO-31 and with SW-620 was > 100 µM (inactive) each time. For the same compound, the GI50 in the experiment on M14, in the experiment on SF-295, in the experiment with SK-MEL-5, in the experiment on HCC 2998, in the experiment on ACHN and in the experiment on SR was > 100 µM (inactive) each time. Further, the GI50 in the experiment on UACC-62, in the experiment on K562, in the experiment on T47D, in the experiment with SK-OV-3, in the experiment with KM12 and with OVCAR-8 was > 100 µM (inactive) each time. The GI50 in the experiment on SNB-19 and in the experiment with SN12C was > 100 µM (inactive) each time.
`C[C@@H]1OCC(O)C([C@H]2OC(c3ccccc3)=N[C@H]2CO)O1` (stereo not given in full): the GI50 in the experiment with IGROV-1, in the experiment with NCI-H460, in the experiment with RPMI-8226, in the experiment on A549, in the experiment with UO-31 and with SW-620 was > 100 µM (inactive) throughout. Further, the GI50 with M14, in the experiment with SF-295, in the experiment with SK-MEL-5, with HCC 2998, in the experiment with ACHN and in the experiment on SR was > 100 µM (inactive) each time. Also, the GI50 in the experiment with UACC-62, in the experiment on K562, in the experiment with T47D, with SK-OV-3, with KM12 and in the experiment on OVCAR-8 was > 100 µM (inactive) in each case. Moreover, the GI50 in the experiment with SNB-19 and in the experiment on SN12C was > 100 µM (inactive) each time.
Take `C=C1C[C@@H](O)[C@@H](Br)C(C)(C)[C@@]12C=CC(=O)CC2`: the GI50 was 3.58 µM (inactive) with IGROV-1; > 100 µM (inactive) in the experiment with NCI-H460; > 100 µM (inactive) with RPMI-8226; > 100 µM (inactive) in the experiment on A549; > 96.4 µM (inactive) with UO-31; > 100 µM (inactive) in the experiment on SW-620. The GI50 in the experiment with M14 was > 100 µM (inactive); in the experiment on SF-295 it was > 100 µM (inactive); in the experiment with SK-MEL-5, > 100 µM (inactive); with HCC 2998 it was > 78.7 µM (inactive); in the experiment on ACHN, > 100 µM (inactive); in the experiment on SR it was > 100 µM (inactive). Also, the GI50 with UACC-62 was > 100 µM (inactive); in the experiment on K562, > 100 µM (inactive); with T47D, > 100 µM (inactive); in the experiment on SK-OV-3, > 100 µM (inactive); in the experiment on KM12 it was 1.52 µM (inactive); in the experiment on OVCAR-8 it was > 100 µM (inactive). Also, the GI50 with SNB-19 and in the experiment on SN12C was > 100 µM (inactive) each time.
In the case of `O=C1C(N2CCN(c3ccccn3)CC2)=C(Cl)C(=O)c2ncccc21`, the GI50 was > 7 µM (inactive) with IGROV-1; > 10 µM (inactive) with NCI-H460; 0.353 µM (active) in the experiment on RPMI-8226; > 10 µM (inactive) in the experiment on A549; 3.27 µM (inactive) in the experiment on UO-31; 1.23 µM (inactive) in the experiment with SW-620. Further, the GI50 in the experiment on M14 was 1.98 µM (inactive); in the experiment on SF-295 it was > 10 µM (inactive); with SK-MEL-5 it was 1.79 µM (inactive); with HCC 2998, > 4.63 µM (inactive); in the experiment on ACHN, 2.14 µM (inactive); with SR it was 2.28 µM (inactive). Further, the GI50 with UACC-62 was 2.54 µM (inactive); with K562 it was 1.51 µM (inactive); with T47D it was 2.06 µM (inactive); with SK-OV-3, > 10 µM (inactive); in the experiment on KM12, > 4.33 µM (inactive); in the experiment on OVCAR-8, > 4.45 µM (inactive). The GI50 with SNB-19 was > 10 µM (inactive); in the experiment with SN12C, 1.66 µM (inactive).
Take `CCOC(=O)/C(C#N)=C1\c2c([nH]c(=S)[nH]c2=O)Oc2ccc3ccccc3c21`: the GI50 is > 100 µM (inactive) in the experiment with IGROV-1; 0.0857 µM (active) in the experiment with NCI-H460; 33 µM (inactive) in the experiment on RPMI-8226; 1.67 µM (inactive) in the experiment on A549; 20 µM (inactive) in the experiment with UO-31; 4.06 µM (inactive) in the experiment on SW-620. Besides, the GI50 is 43.8 µM (inactive) in the experiment on M14; > 100 µM (inactive) with SF-295; 14 µM (inactive) in the experiment with SK-MEL-5; 59.4 µM (inactive) in the experiment with HCC 2998; 28.8 µM (inactive) in the experiment on ACHN; 49.1 µM (inactive) in the experiment on SR. Besides, the GI50 was 24.4 µM (inactive) with UACC-62; > 100 µM (inactive) in the experiment on K562; 34.7 µM (inactive) in the experiment with T47D; 44.9 µM (inactive) with SK-OV-3; > 100 µM (inactive) in the experiment on KM12; 54.7 µM (inactive) in the experiment with OVCAR-8. The GI50 was 0.0887 µM (active) with SNB-19 and 41.1 µM (inactive) in the experiment on SN12C.
In the case of `COc1ccccc1NC(=O)CC(=O)n1nc(C)c(/N=N/c2ccccc2Cl)c1C`, the GI50 in the experiment on IGROV-1, in the experiment with NCI-H460, in the experiment on RPMI-8226, in the experiment on A549, in the experiment on UO-31 and in the experiment with SW-620 was > 100 µM (inactive) throughout. Moreover, the GI50 is > 100 µM (inactive) in the experiment with M14; 83.4 µM (inactive) with SF-295; > 100 µM (inactive) in the experiment on SK-MEL-5; > 100 µM (inactive) with HCC 2998; > 100 µM (inactive) in the experiment on ACHN; > 72.4 µM (inactive) in the experiment with SR. Moreover, the GI50 in the experiment on UACC-62 is > 100 µM (inactive); with K562, > 90.2 µM (inactive); in the experiment with T47D it was > 100 µM (inactive); with SK-OV-3, 48.3 µM (inactive); in the experiment with KM12, > 100 µM (inactive); in the experiment on OVCAR-8 it was > 100 µM (inactive). Further, the GI50 with SNB-19 and in the experiment with SN12C was > 100 µM (inactive) in each case.
Regarding `O=C1CC(NC(=O)C(F)(F)F)c2c1csc2Br` (stereo not given), the GI50 in the experiment with IGROV-1 was > 100 µM (inactive); in the experiment with NCI-H460, 1.51 µM (inactive); in the experiment with RPMI-8226 it was 32.6 µM (inactive); in the experiment on A549, > 100 µM (inactive); in the experiment with UO-31 it was 45.5 µM (inactive); in the experiment with SW-620, 31.8 µM (inactive). In addition, the GI50 is 88.3 µM (inactive) in the experiment on M14; 5.77 µM (inactive) with SF-295; 64.9 µM (inactive) with SK-MEL-5; > 100 µM (inactive) in the experiment on HCC 2998; > 100 µM (inactive) with ACHN; 36.9 µM (inactive) with SR. Besides, the GI50 with UACC-62 is > 100 µM (inactive); in the experiment with K562, 48.3 µM (inactive); in the experiment on T47D it was 3.4 µM (inactive); in the experiment with SK-OV-3, > 100 µM (inactive); with KM12 it was 3.03 µM (inactive); in the experiment with OVCAR-8, > 100 µM (inactive). Besides, the GI50 with SNB-19 was > 100 µM (inactive); with SN12C, 68.4 µM (inactive).
